Molecules are shown by their SMILES.

The assay can be described thus: Neuroprotective activity against glutamate-induced toxicity in Sprague-Dawley rat cortical cells assessed as cell viability at 5 uM pretreated 1 hr before glutamate challenge by LDH release assay. The format is functional. The following applies: read-out: Activity. On the technique in general: Release of lactate dehydrogenase indicates damage to the cell membrane.

Consider `C=C(C)[C@@H]1CC[C@]2(C)C[C@H](O)[C@]3(C)[C@H](C[C@@H](OC(=O)c4ccc(O)c(OC)c4)[C@@H]4[C@@]5(C)CC[C@H](O)C(C)(C)[C@@H]5CC[C@]43C)[C@@H]12` [ULMICIN A], for which the viability at 5 µM came out at 48%.

As to `C=C(C)[C@@H]1CC[C@]2(C)C[C@H](O)[C@]3(C)[C@H](C[C@@H](OC(=O)c4ccc(O)cc4)[C@@H]4[C@@]5(C)CC[C@H](O)C(C)(C)[C@@H]5CC[C@]43C)[C@@H]12` [ULMICIN B], the viability at 5 µM was found to be 51.2%.

On to `C=C(C)[C@@H]1CC[C@]2(C)C[C@H](OC(=O)c3ccc(O)cc3)[C@]3(C)[C@H](C[C@@H](OC(=O)c4ccc(O)c(OC)c4)[C@@H]4[C@@]5(C)CC[C@H](O)C(C)(C)[C@@H]5CC[C@]43C)[C@@H]12` [ULMICIN C], for which the viability at 5 µM came out at 49.2%.

In the case of `C=C(C)[C@@H]1CC[C@]2(C)C[C@H](OC(=O)c3ccc(O)c(OC)c3)[C@]3(C)[C@H](C[C@@H](OC(=O)c4ccc(O)c(OC)c4)[C@@H]4[C@@]5(C)CC[C@H](O)C(C)(C)[C@@H]5CC[C@]43C)[C@@H]12` [ULMICIN D], the viability at 5 µM is 44.2%.

Take `C=C(C)[C@@H]1CC[C@]2(C)C[C@H](OC(=O)c3ccccc3)[C@]3(C)[C@H](C[C@@H](OC(=O)c4ccc(O)c(OC)c4)[C@@H]4[C@@]5(C)CC[C@H](O)C(C)(C)[C@@H]5CC[C@]43C)[C@@H]12` [ULMICIN E]: the viability at 5 µM worked out at 41%.

Values taken from ChEMBL document CHEMBL1150570, “Five novel neuroprotective triterpene esters of Ulmus davidiana var. japonica” (2001).
